According to US12156862B2, “Medicaments for the treatment of vasoconstriction related diseases or disorders” (Sulfateq B.V., priority 2017, dated 2024):
Marks after values point to notes of the source that are not given here.

Experiments:
[1] = biological target: T1, human histamine H1 receptor (Homo sapiens, UniProt P35367); experiment: Histamine-induced intracellular calcium transients in HeLa cells; type: cell-based
T1 construct: HeLa cells endogenously expressing human histamine H1 receptor; endogenous in cells; host or cells: HeLa
T1 sequence (P35367 whole entry): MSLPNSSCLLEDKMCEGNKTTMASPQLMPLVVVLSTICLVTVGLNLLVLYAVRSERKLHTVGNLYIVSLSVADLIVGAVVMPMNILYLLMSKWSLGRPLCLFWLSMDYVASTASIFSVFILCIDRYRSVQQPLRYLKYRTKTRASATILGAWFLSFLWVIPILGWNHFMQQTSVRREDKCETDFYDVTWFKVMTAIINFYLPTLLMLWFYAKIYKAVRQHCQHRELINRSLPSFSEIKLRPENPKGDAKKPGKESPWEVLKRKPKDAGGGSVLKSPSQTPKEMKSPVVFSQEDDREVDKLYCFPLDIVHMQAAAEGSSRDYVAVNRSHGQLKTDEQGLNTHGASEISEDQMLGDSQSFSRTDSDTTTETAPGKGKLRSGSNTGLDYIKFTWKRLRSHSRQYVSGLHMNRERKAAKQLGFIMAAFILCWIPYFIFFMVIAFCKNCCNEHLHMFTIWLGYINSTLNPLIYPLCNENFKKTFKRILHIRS
Protocol: (§1) HeLa cells endogenously expressing histamine and TP receptors were grown in DMEM-F12 medium enriched with 10% FBS and 1% penicillin-streptomycin. Cells were kept in a tissue culture incubator at 37° C. in […] atmosphere and grown in 75 cm^2 non-treated cell culture flasks. Plating was performed 24 hours before measurement on black transparent-bottom 96-well plates at 20,000 cells per well density.
(§2) To confirm specificity of SUL-150 for the α1 adrenoceptor additionally histamine and U46619 induced calcium transients were studied in HeLa cells endogenously expressing human histamine H1 receptor.

[2] = system: EGFR transactivation; experiment: Phenylephrine-induced constriction of porcine intrarenal arteries pre-treated with EGFR blocker AG1478; conditions: AG1478 20 μM and SUL-150 50 μM
Protocol: Inhibition of EGF receptor (EGFR) transactivation is known to inhibit α1 adrenoceptor mediated constrictions (REF). Therefore, we investigated the role of EGFR transactivation in SUL-150 mediated inhibition of vasoconstriction. For this, porcine intrarenal arteries were pre-treated with the EGFR blocker AG1478 (FIG. 3). First, an initial measurement was performed to determine the dose of AG1478 which would cause maximal inhibition of vascular constriction induced by PE (FIG. 3A). Subsequently, isolated arteries were treated with AG1478 (20 μM) and SUL-150 (50 μM) and studied for PE-induced vasoconstriction.

[3] = system: α1 adrenoceptor; experiment: Methoxamine-induced constriction of isolated porcine intrarenal arteries
Protocol: (§3) Porcine kidneys were obtained from a local slaughterhouse (Kroon Vlees, Gotenburgweg 30, 9723 TM Groningen. The Netherlands) and transported on ice in normal physiological Krebs buffer containing 120 mM NaCl, 6 mM KCl, 2.5 mM CaCl2×2H2O, 1.2 mM MgCl2×6H2O, 1.2 mM NaH2PO4×H2O, 25 mM NaHCO3 and 11.4 mM D-(+)-Glucose monohydrate (all ingredients were purchased from Merck) in ultrapure water.
(§4) The renal artery tree was dissected from the kidney, cleaned of surrounding connective tissue and cut into equally-sized ring segments (2 mm in length). In some rings, endothelium denudation was performed by gentle rubbing of the intimal surface with a paper clip. Rings were mounted in organ baths as described previously (Buikema et al., 2000). Arterial rings were washed thoroughly by replacing Krebs buffer and allowed to equilibrate for a period of 60 min under 1.4 g of resting tension before they were assessed for viability by inducing 2 subsequent constrictions with KCl (60 mM). […] After washout and stabilization, rings were treated for 30 minutes by incubation with vehicle (0.1% DMSO), SUL-121, SUL-150 or SUL-151, followed by subsequent incubation with cumulative doses of phenylephrine.
Additionally, the effects of SUL-150 were investigated on stimulation with methoxamine, which is an alternative α1 adrenoceptor agonist.

[4] = biological target: T2, thromboxane receptors (Sus scrofa, UniProt A0A287A102); experiment: U46619-induced constriction of isolated porcine intrarenal arteries; conditions: for logEC50 of U46619-induced constriction responses: Porcine renalis
T2 construct: from tissue; host or cells: porcine intrarenal artery rings
T2 sequence (A0A287A102 1-343): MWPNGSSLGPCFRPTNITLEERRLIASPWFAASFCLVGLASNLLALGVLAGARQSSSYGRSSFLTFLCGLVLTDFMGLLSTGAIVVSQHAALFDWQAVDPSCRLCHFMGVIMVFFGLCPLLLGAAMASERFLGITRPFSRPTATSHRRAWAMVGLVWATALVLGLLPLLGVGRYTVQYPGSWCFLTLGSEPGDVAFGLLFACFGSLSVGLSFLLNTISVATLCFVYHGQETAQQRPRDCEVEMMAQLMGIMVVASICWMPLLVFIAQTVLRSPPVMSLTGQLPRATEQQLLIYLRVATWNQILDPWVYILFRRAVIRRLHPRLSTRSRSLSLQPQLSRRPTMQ
Protocol: as §3, §4
(§5) To gain insight into receptor specificity of SUL-150, the effects of SUL-150 on histamine and U46619 (a synthetic thromboxane agonist) induced constrictions were investigated (FIG. 2).

[5] = biological target: T3, human α1 adrenoceptor subtype B (Homo sapiens, UniProt P35368); experiment: Phenylephrine-induced intracellular calcium (FLIPR Calcium 6) in CHO cells, α1B; type: cell-based
T3 construct: expressed in transfected cells; host or cells: CHO-K1
T3 sequence (P35368 1-520): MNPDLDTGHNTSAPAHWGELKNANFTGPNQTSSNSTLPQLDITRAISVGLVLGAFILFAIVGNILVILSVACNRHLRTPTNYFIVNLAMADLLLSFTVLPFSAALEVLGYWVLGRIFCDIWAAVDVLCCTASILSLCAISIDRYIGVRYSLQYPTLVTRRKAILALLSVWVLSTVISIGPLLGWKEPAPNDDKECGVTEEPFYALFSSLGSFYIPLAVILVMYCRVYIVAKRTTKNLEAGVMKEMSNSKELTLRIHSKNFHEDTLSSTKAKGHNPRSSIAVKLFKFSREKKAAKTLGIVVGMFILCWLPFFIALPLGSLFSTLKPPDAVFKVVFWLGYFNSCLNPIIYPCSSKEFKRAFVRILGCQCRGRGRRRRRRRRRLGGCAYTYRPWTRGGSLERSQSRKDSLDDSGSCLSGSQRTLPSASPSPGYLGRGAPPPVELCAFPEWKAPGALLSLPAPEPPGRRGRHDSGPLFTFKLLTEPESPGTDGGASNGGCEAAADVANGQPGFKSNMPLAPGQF
Protocol: (§6) CHO-K1 cells were stably transfected with a plasmid containing human al-AR subtypes A, B and D in separate cell lines in DMEM-F12 medium with 10% FBS, 1% penicillin-streptomycin and 200 μg/mL Geneticin (G418, Invitrogen, Carlsbad, CA).
(§7) On the next day, CHO cells were treated with either vehicle (0.1% DMSO) or SUL-121 enantiomers for 30 min at 37° C. and stimulated with a 3-fold dilution series of PE (20 μM-100 pM). [Ca^2], was measured using the fluorescent FLIPR Calcium 6 assay kit (Molecular Devices) in immortalized CHO cells stably expressing the α1 adrenoceptor.
(§8) Initially, calcium responses induced by non-cumulative concentration series of phenylephrine were investigated using fluorescent measurements in α1A adrenoceptor-overexpressing CHO cells treated with SUL-150 and SUL-151 (FIG. 4). Fluorescent measurement data was processed and analyzed in SoftMax Pro 7 and expressed as % of baseline AUC with a 3-fold multiplier using an average of first 10 measurement points as baseline.

[6] = system: α1 adrenoceptor; experiment: Phenylephrine-induced constriction of isolated porcine intrarenal arteries (myography)
Protocol: as §3, §4
Dose-dependent constriction responses to phenylephrine (10^−8M-10^−4M) were recorded in said isolated porcine intrarenal arteries. Buffer was warmed to 37° C. and aerated with 95% O2 and 5% CO2 before use.
Vascular constriction responses are expressed as percentage of final response to KCl. Data are expressed as mean±SEM. *p<0.05.
To explore the effects of the enantiomers of (6-hydroxy-2,5,7,8-tetramethylchroman-2-yl)(piperazin-1-yl)methanone (SUL-150 and SUL-151) on constriction of isolated porcine intrarenal arteries, cumulative dose response curves to the α1 adrenoceptor agonist phenylephrine (PE) were constructed in the presence and absence of SUL-150 and SUL-151.

[7] = biological target: T4, human α1 adrenoceptor subtype D (Homo sapiens, UniProt P25100); experiment: Phenylephrine-induced intracellular calcium (FLIPR Calcium 6) in CHO cells, α1D; type: cell-based
T4 construct: expressed in transfected cells; host or cells: CHO-K1
T4 sequence (P25100 1-572): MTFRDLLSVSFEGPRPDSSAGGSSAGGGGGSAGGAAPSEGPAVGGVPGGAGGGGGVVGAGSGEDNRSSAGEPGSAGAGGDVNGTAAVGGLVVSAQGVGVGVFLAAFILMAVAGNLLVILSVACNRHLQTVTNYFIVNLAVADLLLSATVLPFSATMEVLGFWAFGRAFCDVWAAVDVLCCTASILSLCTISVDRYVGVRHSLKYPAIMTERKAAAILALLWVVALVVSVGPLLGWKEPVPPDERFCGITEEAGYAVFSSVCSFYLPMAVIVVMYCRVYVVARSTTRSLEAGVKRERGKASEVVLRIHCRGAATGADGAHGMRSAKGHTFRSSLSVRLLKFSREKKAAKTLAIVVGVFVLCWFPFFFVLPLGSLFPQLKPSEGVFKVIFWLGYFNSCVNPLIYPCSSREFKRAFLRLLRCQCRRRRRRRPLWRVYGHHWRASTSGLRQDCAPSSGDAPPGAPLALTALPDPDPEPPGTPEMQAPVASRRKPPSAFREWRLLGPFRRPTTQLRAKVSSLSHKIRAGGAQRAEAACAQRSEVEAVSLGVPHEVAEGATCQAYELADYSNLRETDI
Protocol: as §6, §7, §8

[8] = biological target: T5, human α1 adrenoceptor subtype A (Homo sapiens, UniProt P35348); experiment: Phenylephrine-induced intracellular calcium (FLIPR Calcium 6) in CHO cells, α1A; type: cell-based
T5 construct: expressed in transfected cells; host or cells: CHO-K1
T5 sequence (P35348 1-466): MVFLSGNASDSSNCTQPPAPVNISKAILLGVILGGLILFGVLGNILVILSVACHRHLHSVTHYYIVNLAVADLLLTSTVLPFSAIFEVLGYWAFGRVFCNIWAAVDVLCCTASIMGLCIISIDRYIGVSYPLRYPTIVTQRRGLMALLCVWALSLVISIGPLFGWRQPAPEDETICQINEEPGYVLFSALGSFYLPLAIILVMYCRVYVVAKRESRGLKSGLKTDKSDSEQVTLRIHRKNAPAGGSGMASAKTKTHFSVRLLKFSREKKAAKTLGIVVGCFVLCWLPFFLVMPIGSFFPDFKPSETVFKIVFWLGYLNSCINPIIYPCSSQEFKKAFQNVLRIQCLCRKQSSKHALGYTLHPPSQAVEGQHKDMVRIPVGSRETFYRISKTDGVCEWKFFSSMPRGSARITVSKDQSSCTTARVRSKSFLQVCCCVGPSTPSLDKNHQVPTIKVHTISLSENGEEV
Protocol: as §6, §7, §8

[9] = biological target: T6, α1A adrenoceptor (Homo sapiens, UniProt P35348); experiment: Radiolabeled prazosin displacement binding assay in α1A adrenoceptor transgenic CHO cells; conditions: [7-Methoxy-3H]-prazosin
T6 construct: expressed in transfected cells; host or cells: CHO-K1
T6 sequence (P35348 1-466): T5 sequence (P35348 1-466)
Source text: We therefore explored whether SUL-150 could directly interact with the α1 adrenoceptor as a receptor antagonist.

[10] = biological target: T7, TP receptors (Homo sapiens, UniProt P21731); experiment: U46619-induced intracellular calcium transients in HeLa cells; type: cell-based
T7 construct: HeLa cells endogenously expressing histamine and TP receptors; endogenous in cells; host or cells: HeLa
T7 sequence (P21731 1-343): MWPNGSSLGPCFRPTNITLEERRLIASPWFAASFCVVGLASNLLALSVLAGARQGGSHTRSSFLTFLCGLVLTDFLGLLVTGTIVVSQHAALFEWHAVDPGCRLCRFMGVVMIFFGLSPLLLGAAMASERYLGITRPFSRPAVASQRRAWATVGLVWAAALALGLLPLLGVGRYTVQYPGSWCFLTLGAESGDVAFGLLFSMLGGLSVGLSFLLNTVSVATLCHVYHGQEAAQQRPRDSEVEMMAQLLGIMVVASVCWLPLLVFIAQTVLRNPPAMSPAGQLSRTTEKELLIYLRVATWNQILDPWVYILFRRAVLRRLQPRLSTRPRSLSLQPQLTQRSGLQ
Protocol: as §1, §2

[11] = system: porcine intrarenal arteries (histamine induced constrictions); experiment: Histamine-induced constriction of isolated porcine intrarenal arteries; conditions: for logEC50 of histamine-induced constriction responses: Porcine renalis
Protocol: as §3, §4, §5

[12] = 10 μM SUL-150, calcium transients
[13] = 30 μM SUL-150, calcium transients
[14] = 100 μM SUL-150, calcium transients

Structure (SMILES): Cc1c(C)c2c(c(C)c1O)CC[C@](C)(C(=O)N1CCNCC1)O2 [SUL-150, (R)(6-hydroxy-2,5,7,8-tetramethylchroman-2-yl)(piperazin-1-yl)methanone]
- logEC50 of histamine-induced response, HeLa cells [1, 12]: −6.45 ± 0.05
- logEC50 of histamine-induced response, HeLa cells [1, 13]: −6.39 ± 0.05
- logEC50 of histamine-induced response, HeLa cells [1, 14]: −6.29 ± 0.06
- effect on histamine induced calcium transients ([1]; in words): did not significantly affect
- effect on PE-mediated constriction on top of AG1478 [2]: additional inhibitory effect
- effect on dose response curves to methoxamine ([3]; SUL-150 pre-treatment (30 μM and 100 μM), intact endothelium): shifted rightward
- effect on methoxamine induced constriction after removal of the endothelium ([3]; endothelium-denuded rings): did not abrogate the effects of SUL-150
- logEC50 of U46619-induced constriction responses ([4]; 30 μM SUL-150): −7.58 ± 0.06
- logEC50 of U46619-induced constriction responses ([4]; 100 μM SUL-150): −7.50 ± 0.04
- shift in EC50 of U46619-induced constrictions ([4]; 100 μM SUL-150, in words): small effect size
- logEC50 of phenylephrine-induced calcium influx, α1B ([5]; 10 μM test compound): −7.51 ± 0.08
- logEC50 of phenylephrine-induced calcium influx, α1B ([5]; 30 μM test compound): −7.24 ± 0.07
- logEC50 of phenylephrine-induced calcium influx, α1B ([5]; 100 μM test compound): −6.72 ± 0.08
- effect on PE-induced calcium transients, α1 adrenoceptor subtype B ([5]; in words): shifted dose response curves rightwards
- logEC50 of phenylephrine-induced constriction responses ([6]; 10 μM test compound): −5.11 ± 0.09*
- logEC50 of phenylephrine-induced constriction responses ([6]; 30 μM test compound): −5.06 ± 0.06*
- logEC50 of phenylephrine-induced constriction responses ([6]; 100 μM test compound): −4.44 ± 0.09*
- logEC50 of phenylephrine-induced calcium influx, α1D ([7]; 10 μM test compound): −7.37 ± 0.10
- logEC50 of phenylephrine-induced calcium influx, α1D ([7]; 30 μM test compound): −7.04 ± 0.06
- logEC50 of phenylephrine-induced calcium influx, α1D ([7]; 100 μM test compound): −6.80 ± 0.10
- effect on PE-induced calcium transients, α1 adrenoceptor subtype D ([7]; in words): shifted dose response curves rightwards
- logEC50 of phenylephrine-induced calcium influx, α1A ([8]; 10 μM test compound): −7.62 ± 0.03
- logEC50 of phenylephrine-induced calcium influx, α1A ([8]; 30 μM test compound): −7.28 ± 0.03
- logEC50 of phenylephrine-induced calcium influx, α1A ([8]; 100 μM test compound): −6.88 ± 0.03
- effect on PE-induced calcium transients, α1 adrenoceptor subtype A ([8]; in words): shifted dose response curves rightwards
- potency in displacing the radioligand compared to SUL-151 [9]: more potent
- logEC50 of U46619-induced response, HeLa cells [10, 12]: −6.83 ± 0.10
- logEC50 of U46619-induced response, HeLa cells [10, 13]: −6.78 ± 0.18
- logEC50 of U46619-induced response, HeLa cells [10, 14]: −6.75 ± 0.10
- effect on U46619 induced calcium transients ([10]; in words): did not significantly affect
- logEC50 of histamine-induced constriction responses ([11]; 30 μM SUL-150): −4.86 ± 0.08
- effect on constriction responses to histamine ([11]; 30 μM and 100 μM, in words): did not affect
- logEC50 of histamine-induced constriction responses ([11]; 100 μM SUL-150): −4.85 ± 0.10
